In paper PMC11732879, “Preclinical evaluation of ^225Ac-labeled minigastrin analog DOTA-CCK-66 for Targeted Alpha Therapy” (European Journal of Nuclear Medicine and Molecular Imaging, 2024):
*1 amine or outer side, *2 acyl side, *3 side chain or, on linkers, in order; H or OH if unused. Where a SMILES comes first, the peptide text is derived from it. [ ]: non-standard residue; d: D form. The star is where a group is joined. DOTA = O=C(O)CN1CCN(CC(=O)O)CCN(CC(=O)*)CCN(CC(=O)O)CC1; d(γGlu) = O=C(O)[C@@H](CCC(=O)[*:2])N[*:1]; 1Nal = N[C@@H](Cc1cccc2ccccc12)C(=O)O; NMeNle = CCCC[C@H](NC)C(=O)O; PEG4 = NCCOCCOCCOCCOCCC(=O)O

Tests used:
in vivo = experiment: in vivo; parameters: species or system 394-NOD SCID mice; details: 394-NOD SCID, mouse, 1.1 MBq
Procedure: Static PET/CT images of control group animals were acquired (n = 5) 1 h after injection of [^68Ga]Ga-DOTA-CCK-66 using a preclinical PET/CT scanner (Genisys 8 PET/CT; Sofie Biosciences, Dulles, VA, USA), according to a published procedure. PET image reconstruction was carried out using a maximum-likelihood expectation maximization with 60 iterations. Correction for photon attenuation of all images was performed. Acquisition parameters for CT applications were 40 kVp and […]. Acquired data were analyzed using OsiriX Imaging Software (version 3.9.3; Pixmeo SARL, Bernex, Switzerland).

AR42J tumor = experiment: Single-dose treatment study (tumor volume, survival); format: in vivo, 394-NOD SCID mice; details: for Tumor volume: single injection on day 0: [225Ac] 37 kBq (178 pmol), caliper, mean±SD, n=5
Procedure: AR42J cells (2 × 10^6 cells, 100 µL suspended in Matrigel) were subcutaneously inoculated into the right shoulder region of mice. When tumors reached 30 to 290 mm^3 (14 to 17 d after inoculation), […] into 3 groups (5 per group). On day 0 of the experiment mice received a single-dose injection of either [^68Ga]Ga-DOTA-CCK-66 (1.1 MBq, PET/CT imaging, control cohort), [^177Lu]Lu-DOTA-CCK-66 (37 MBq) or [^225Ac]Ac-DOTA-CCK-66 (37 kBq). Tumor volume (caliper measurements, length^2 × width/2) and body weight of all animals were subsequently monitored twice a week. Animals were sacrificed after reaching one of the end-point criteria (weight loss of more than 20%, tumor volume of more than 2,000 mm^3, ulceration of the tumor, respiratory distress, or change of behavior).

Compound: CCCC[C@@H](C(=O)N[C@@H](CC(=O)O)C(=O)N[C@@H](Cc1cccc2ccccc12)C(N)=O)N(C)C(=O)[C@H](Cc1c[nH]c2ccccc12)NC(=O)CCOCCOCCOCCOCCNC(=O)CC[C@@H](NC(=O)CN1CCN(CC(=O)O)CCN(CC(=O)O)CCN(CC(=O)O)CC1)C(=O)O [[^68Ga]Ga-DOTA-CCK-66, metal not drawn] ({DOTA-d(γGlu)-PEG4}-W[NMeNle]D[1Nal]-NH2)
- SUV at 1 h (in vivo): 2.02 ± 0.77 SUV

Compound: CCCC[C@@H](C(=O)N[C@@H](CC(=O)O)C(=O)N[C@@H](Cc1cccc2ccccc12)C(N)=O)N(C)C(=O)[C@H](Cc1c[nH]c2ccccc12)NC(=O)CCOCCOCCOCCOCCNC(=O)CC[C@@H](NC(=O)CN1CCN(CC(=O)O)CCN(CC(=O)O)CCN(CC(=O)O)CC1)C(=O)O [[^225Ac]Ac-DOTA-CCK-66] [metal not drawn] ({DOTA-d(γGlu)-PEG4}-W[NMeNle]D[1Nal]-NH2)
- fold increase in mean survival, 225Ac-TAT compared to 177Lu-RLT (AR42J tumor; 54 d versus 37 d, p = 0.0003): 1.5 fold
- Tumor volume (AR42J tumor; day 0, [177Lu] 37 MBq (1.7 nmol), [68Ga] control cohort 1.1 MBq (29 pmol)): 150±80 mm^3
- Tumor volume (AR42J tumor; day 3, [177Lu] 37 MBq (1.7 nmol), [68Ga] control cohort 1.1 MBq (29 pmol)): 170±110 mm^3
- Tumor volume (AR42J tumor; day 7, [177Lu] 37 MBq (1.7 nmol), [68Ga] control cohort 1.1 MBq (29 pmol)): 130±60 mm^3
- Tumor volume (AR42J tumor; day 10, [177Lu] 37 MBq (1.7 nmol), [68Ga] control cohort 1.1 MBq (29 pmol)): 100±60 mm^3
- Tumor volume (AR42J tumor; day 14, [177Lu] 37 MBq (1.7 nmol)): 100±50 mm^3
- Tumor volume (AR42J tumor; day 17, [177Lu] 37 MBq (1.7 nmol)): 100±50 mm^3
- Tumor volume (AR42J tumor; day 21, [177Lu] 37 MBq (1.7 nmol)): 90±60 mm^3
- Tumor volume (AR42J tumor; day 24, [177Lu] 37 MBq (1.7 nmol)): 130±70 mm^3
- Tumor volume (AR42J tumor; day 28, [177Lu] 37 MBq (1.7 nmol)): 130±80 mm^3
- Tumor volume (AR42J tumor; day 31, [177Lu] 37 MBq (1.7 nmol)): 160±90 mm^3
- Tumor volume (AR42J tumor; day 35): 240±130 mm^3
- Tumor volume (AR42J tumor; day 38): 470±280 mm^3
- Tumor volume (AR42J tumor; day 42): 740±430 mm^3
- Tumor volume (AR42J tumor; day 45): 1,040±690 mm^3
- Tumor volume (AR42J tumor; day 49): 1,600±830 mm^3
- Mean survival (AR42J tumor; single dose on day 0: [225Ac] 37 kBq, [177Lu] 37 MBq, [68Ga] 1.1 MBq (control group), n=5 per group): 54 ± 6 days
- fold increase in mean survival versus control group (AR42J tumor; single dose: [225Ac] 37 kBq, [177Lu] 37 MBq, control 12 ± 3 d): 4.5 fold
